In paper PMC5874699, “Antimicrobial and Antibiofilm Activity of UP-5, an Ultrashort Antimicrobial Peptide Designed Using Only Arginine and Biphenylalanine” (Pharmaceuticals, 2018):
Square brackets hold non-standard residues; d marks the D form. Peptide text beside a SMILES is read from it. Bip = N[C@@H](Cc1ccc(-c2ccccc2)cc1)C(=O)O

Columns and labels:
Vero cells = format: cell-based; settings: 24 h
Protocol: Vero cells were seeded at 5 × 10^3 cells per well in flat-bottomed 96-well plates, and the plate was incubated for 18–24 h at 37 °C under 5% CO2 to allow cell attachment on the bottom of the plates. Next day, different concentrations of the peptide were prepared as a gradient using growth medium as the diluent (150, 200, 250, 300, 400, 500, and 600 µM). The plates were incubated for 24 h at 37 °C under 5% CO2. Next, 30 μL (2.5 g/L) MTT solutions were added to all wells and the plates were incubated for 4–6 h. After incubation, the MTT-Peptide solution was removed and a 100 μL of DMSO was added to each well and mixed thoroughly by pipetting to dissolve the Formazan crystals at the bottom of the wells until a clear purple color was achieved. The plates were then placed on an ELx808™ Absorbance Microplate Reader (BioTek, Winooski, VT, USA) and the absorbance was measured at λ = 540 nm.

in vitro = in vitro ADME; settings: mouse
Protocol: The stability assay of UP-5 relied on a previously reported stability test procedure employing mouse plasma or mouse serum (PAA Laboratories, Pasching, Austria). Briefly, a stock solution of the peptide was prepared in 5% aqueous DMSO. The highest DMSO concentration was less than 0.5% after dilution in order to have a final concentration of peptide equal to 1 g/L. Each peptide was dissolved in plasma or serum at a final concentration corresponding to 75 µg/mL and incubated at 37 °C (750 rpm, Eppendorf, Hamburg, Germany). After different time periods, aliquots (47.5 µL) were taken and proteins were precipitated by addition of 150 µL of a mixture composed acetonitrile, water, and formic acid (89:10:1 by volume). The samples were incubated on ice for 45 min and centrifuged for 10 min at 13,000× g (Eppendorf, Hamburg, Germany). […] The second supernatant (155 µL) was collected and dried under vacuum. The samples were dissolved in 3% aqueous acetonitrile containing, 0.1% formic acid, and were analyzed using an Agilent 1100 HPLC system (Agilent Technologies, Santa Clara, CA, USA), coupled online to an Esquire HCT mass spectrometer (Bruker Daltonik GmbH, Bremen, Germany) equipped with an analytical Jupiter C18-reversed phase column (2 mm inner diameter, 150 mm length, 5 µm particle size, […]). Eluent A contained 0.1% formic acid in water and Eluent B was 60% aqueous acetonitrile containing 0.1% formic acid.

S. aureus (ATCC BAA-41) = assay: Broth microdilution checkerboard, UP-5 with antibiotics; format: cell-based, Staphylococcus aureus; settings: S. aureus ATCC BAA-41, checkerboard, triplicate
Description: (§1) All bacterial susceptibility, biofilm, and synergistic assays of peptides, antibiotics, and peptides-antibiotics combinations used bacterial strains obtained from the American Type Tissue Culture Collection (ATCC, Manassas, VA, USA) that states the mechanism of resistance for each strain according to ATCC number. Gram-positive bacteria were represented by five strains, the wild type strain Staphylococcus aureus (ATCC 29213) and methicillin-resistant S. aureus (MRSA) (ATCC 33591) in addition to clinically isolated strains S. aureus (ATCC BAA-41& 43300) and Enterococcus faecalis (ATCC BAA-2316). The Gram-negative bacteria strains were represented by wild type strains of Escherichia coli (ATCC 25922 & 35218) and Pseudomonas aeruginosa (ATCC 27853) as well as the clinically isolated multidrug-resistant strain P. aeruginosa (ATCC BAA-2114). The bacteria were cultured onto Muller Hinton Agar (Scharlab, S.L, Barcelona, Spain). Mueller Hinton Broth (Oxoid Ltd., Basingstoke, UK) was used to prepare all bacterial suspensions and to dissolve the peptides and the antibiotics. The assay was performed in sterile 96-well polypropylene microtiter plates.
(§2) According to the broth microdilution checkerboard technique, the MIC and MBC values of peptide-antibiotics combinations against wild type and multidrug resistant bacterial strains were determined. Serial concentrations of peptide and each antibiotic were prepared in the range of 0.005–100 μM. In each well of a 96-well microtiter plate, 25 μL of each peptide concentration were added to 25 μL of each antibiotic concentration which is followed by adding 50 μL of diluted bacterial suspension (10^6 CFU/mL) to each well. The prepared concentrations of peptide and each antibiotic were arranged into rows and columns, respectively, in a 96-well microtiter plate according the checkerboard technique. Then as described previously (see Section 2.4.1), the procedure was followed. All MIC and MBC determinations of all assays were made in triplicate.
(§3) The fractional inhibitory concentration (FIC) is defined as the inhibitory concentration of the antimicrobial combination divided by that of the single antimicrobial component. To calculate FIC index for peptide-antibiotic combinations, the following equation was used:(1) FIC index=MIC of drug X in combination/MIC of drug X alone+MIC of drug Y in combination/MIC of drug Y alone
(§4) The FIC indices were interpreted as follows: ≤0.5: synergistic activity, 0.5–1: additive activity, 1–4 indifferent, >4: antagonism. Interpretation and assessment of the FIC indices were performed according to the broth microdilution checkerboard technique.

S. aureus (ATCC 33591) = assay: as above; format: cell-based, Staphylococcus aureus; settings: S. aureus ATCC 33591, checkerboard, triplicate
Description: as §1, §2, §3, §4

S. aureus (ATCC 29213) = assay: as above; format: cell-based, Staphylococcus aureus; settings: S. aureus ATCC 29213, checkerboard, triplicate
Description: as §1, §2, §3, §4

S. aureus (ATCC 43300) = assay: as above; format: cell-based, Staphylococcus aureus; settings: S. aureus ATCC 43300, checkerboard, triplicate
Description: as §1, §2, §3, §4

[1] = UP-5 in combination with Ampicillin
[2] = UP-5 in combination with Chloramphenicol
[3] = UP-5 in combination with Erythromycin
[4] = UP-5 in combination with Levofloxacin
[5] = UP-5 in combination with Rifampicin

half-life at 75 µg/mL (in vitro; plasma): 2.88 h
metabolised at 1 h, 75 µg/mL (in vitro; plasma): 27%
metabolised at 4 h, 75 µg/mL (in vitro; plasma): 66%
remaining at 1 h, 75 µg/mL (in vitro; plasma): 73%
remaining at 4 h, 75 µg/mL (in vitro; plasma): 34%
half-life at 75 µg/mL (in vitro; serum): < 0.25 h
metabolised at 0.25 h, 75 µg/mL (in vitro; serum): > 80%
UP-5 MIC in Combination (S. aureus (ATCC BAA-41); [1]): 7.5 µM
UP-5 MIC in Combination (S. aureus (ATCC BAA-41); [2]): 7.5 µM
UP-5 MIC in Combination (S. aureus (ATCC BAA-41); [3]): 15 µM
UP-5 MIC in Combination (S. aureus (ATCC BAA-41); [4]): 15 µM
UP-5 MIC in Combination (S. aureus (ATCC BAA-41); [5]): 15 µM
UP-5 MIC in Combination (S. aureus (ATCC 33591); [1]): 1.25 µM
UP-5 MIC in Combination (S. aureus (ATCC 33591); [2]): 5 µM
UP-5 MIC in Combination (S. aureus (ATCC 33591); [3]): 0.125 µM
UP-5 MIC in Combination (S. aureus (ATCC 33591); [4]): 0.125 µM
UP-5 MIC in Combination (S. aureus (ATCC 33591); [5]): 0.125 µM
UP-5 MIC in Combination (S. aureus (ATCC 29213); [1]): 0.25 µM
UP-5 MIC in Combination (S. aureus (ATCC 29213); [2]): 2.5 µM
UP-5 MIC in Combination (S. aureus (ATCC 29213); [3]): 10 µM
UP-5 MIC in Combination (S. aureus (ATCC 29213); [4]): 0.125 µM
UP-5 MIC in Combination (S. aureus (ATCC 29213); [5]): 10 µM
UP-5 MIC in Combination (S. aureus (ATCC 43300); [1]): 7.5 µM
UP-5 MIC in Combination (S. aureus (ATCC 43300); [2]): 7.5 µM
UP-5 MIC in Combination (S. aureus (ATCC 43300); [3]): 7.5 µM
UP-5 MIC in Combination (S. aureus (ATCC 43300); [4]): 0.025 µM
UP-5 MIC in Combination (S. aureus (ATCC 43300); [5]): 5 µM
Structure (SMILES): N=C(N)NCCC[C@H](NC(=O)[C@H](Cc1ccc(-c2ccccc2)cc1)NC(=O)[C@H](CCCNC(=N)N)NC(=O)[C@H](Cc1ccc(-c2ccccc2)cc1)NC(=O)[C@@H](N)CCCNC(=N)N)C(=O)O [UP-5] (H-R[Bip]R[Bip]R-OH)
IC50 (Vero cells): > 250 µM
